The values that follow come from publication PMC11883000, “Structure-function relationship of ASH1L and histone H3K36 and H3K4 methylation” (Nature Communications, 2025).

Read-outs that look alike come from different tables or passages of the source.

For assay [1], the target named is T1, ASH1LPHD (Homo sapiens, UniProt Q9NR48).
T1 construct: ASH1LPHD (aa 2579-2629); GST (N, cleaved yes); made in house; host or cells: E. coli BL21 or Rosetta2 (DE3) pLysS
In words: NMR titration (1H,15N HSQC), WT ASH1LPHD. The class given is binding. To be noted: unlabeled ASH1LSET titrated into 15N-labeled ASH1LPHD. An excerpt: (§1) Human ASH1L constructs ASH1LPHD (aa 2579-2629), ASH1LBD (aa 2430-2564) and ASH1LPHD-BAH (aa 2579- 2794 and 2579-2834), ASH1LBD-PHD (aa 2430-2629) were cloned into pDEST15 vector with a TEV or Precission cleavage site. ASH1LBD-PHD-BAH (aa 2436-2833), ASH1LSET-BD-PHD (aa 2074-2629) and ASH1LSET-BD-PHD-BAH (aa 2069-2834) were in pGEX6P-1 and pMOCR vectors. Mutants of Ash1LPHD and Ash1LBD were generated following Quikchange mutagenesis protocols. Each construct was expressed in BL21 or Rosetta2 (DE3) pLysS cells in LB or minimal media supplemented with ^15NH4Cl (and ZnCl2 for PHD finger-containing constructs). Cultures were induced with 0.5 mM IPTG and grown for 18 h at 16 °C. After harvesting, the GST-tagged proteins were purified using glutathione agarose (Thermo Scientific) in 20 mM Tris pH 7.5, 150-500 mM NaCl, 5 mM MgCl2 and 2 mM DTT. […]
(§2) NMR experiments were performed at 298 K on Varian 600 MHz and 900 MHZ spectrometers equipped with a cryogenic probe. Chemical shift perturbation experiments were carried out using 0.1–0.2 mM uniformly ^15N-labeled wild type or mutant proteins in 25 mM Tris pH 7.5 buffer, supplemented with 150 mM NaCl, 5 mM DTT and 5-7% D2O. ^1H,^15N heteronuclear single quantum coherence (HSQC) or transverse relaxation optimized spectroscopy (TROSY) spectra were recorded in the absence and presence of increasing concentrations of ligands. […]

The test system of a further assay is ASH1LBD. As to the kind of experiment: NMR titration (1H,15N HSQC), ASH1LBD. The format is binding, Human. To be noted: unlabeled ASH1LSET titrated into 15N-labeled ASH1LBD.
Excerpt: as §1, §2

Assay [2] addresses T1, ASH1LPHD. As to the kind of experiment: Tryptophan fluorescence binding, WT ASH1LPHD. The source says:
Human ASH1L constructs ASH1LPHD (aa 2579-2629), ASH1LBD (aa 2430-2564) and ASH1LPHD-BAH (aa 2579- 2794 and 2579-2834), ASH1LBD-PHD (aa 2430-2629) were cloned into pDEST15 vector with a TEV or Precission cleavage site. ASH1LBD-PHD-BAH (aa 2436-2833), ASH1LSET-BD-PHD (aa 2074-2629) and ASH1LSET-BD-PHD-BAH (aa 2069-2834) were in pGEX6P-1 and pMOCR vectors. Mutants of Ash1LPHD and Ash1LBD were generated following Quikchange mutagenesis protocols. Each construct was expressed in BL21 or Rosetta2 (DE3) pLysS cells in LB or minimal media supplemented with ^15NH4Cl (and ZnCl2 for PHD finger-containing constructs). Cultures were induced with 0.5 mM IPTG and grown for 18 h at 16 °C. After harvesting, the GST-tagged proteins were purified using glutathione agarose (Thermo Scientific) in 20 mM Tris pH 7.5, 150-500 mM NaCl, 5 mM MgCl2 and 2 mM DTT. For experiments requiring GST-tagged constructs, the proteins were eluted in a buffer containing 20 mM Tris pH 7.5, 150-500 mM NaCl, 5 mM MgCl2, 50 mM reduced glutathione and 2 mM DTT. For crystallography and biochemical assays, the GST tag was cleaved overnight at 4 °C with TEV or PreScission protease, and proteins were further purified by size exclusion chromatography (SEC). Protein fractions were checked for purity by SDS-PAGE and concentrated in a concentrator (Millipore).
(§3) Fluorescence spectra were collected at 25 °C on a Fluoromax-3 and Fluoromax-4 plus C spectrofluorometers (HORIBA). […] Emission spectra were recorded between 320 and 360 nm with a 0.5 nm step size and a 0.5 s integration time. The Kd values were determined using a nonlinear least-squares analysis and the equation:3 ΔI=ΔImax((L+P+Kd)−L+P+Kd^2−4[P][L])/2[P] where [L] is concentration of the peptide, [P] is concentration of the protein, ΔI is the observed change of signal intensity, and ΔImax is the difference in signal intensity of the free and bound states of the protein. The Kd values were averaged over three independent experiments with error calculated as the standard deviation between the runs.

In a further assay the target is T2, ASH1LPHD D2584A (Homo sapiens, UniProt Q9NR48, D2584A).
T2 construct: ASH1LPHD (aa 2579-2629); GST (N, cleaved yes); made in house; host or cells: E. coli BL21 or Rosetta2 (DE3) pLysS
In words: Tryptophan fluorescence binding, ASH1LPHD D2584A. To be noted: 25 °C, pH 7.5, mean ± S.D., three independent experiments.
Excerpt: as §1, with “°C.” for “°C. After harvesting, the GST-tagged proteins were purified using glutathione agarose (Thermo Scientific) in 20 mM Tris pH 7.5, 150-500 mM NaCl, 5 mM MgCl2 and 2 mM DTT.”
as §3

Another assay has as its target T3, ASH1LPHD D2595A (Homo sapiens, UniProt Q9NR48, D2595A).
T3 construct: ASH1LPHD (aa 2579-2629); GST (N, cleaved yes); made in house; host or cells: E. coli BL21 or Rosetta2 (DE3) pLysS
As to the kind of experiment: Tryptophan fluorescence binding, ASH1LPHD D2595A. To be noted: 25 °C, pH 7.5, mean ± S.D., three independent experiments.
Excerpt: as §1, with “°C.” for “°C. After harvesting, the GST-tagged proteins were purified using glutathione agarose (Thermo Scientific) in 20 mM Tris pH 7.5, 150-500 mM NaCl, 5 mM MgCl2 and 2 mM DTT.”
as §3

The next assay deals with T4, ASH1LPHD Q2601K (Homo sapiens, UniProt Q9NR48, Q2601K).
T4 construct: ASH1LPHD (aa 2579-2629); GST (N, cleaved yes); made in house; host or cells: E. coli BL21 or Rosetta2 (DE3) pLysS
As to the kind of experiment: Tryptophan fluorescence binding, ASH1LPHD Q2601K. To be noted: 25 °C, pH 7.5, mean ± S.D., three independent experiments.
Excerpt: as §1, with “°C.” for “°C. After harvesting, the GST-tagged proteins were purified using glutathione agarose (Thermo Scientific) in 20 mM Tris pH 7.5, 150-500 mM NaCl, 5 mM MgCl2 and 2 mM DTT.”
as §3

The target in another assay is T5, ASH1LPHD-BAH (Homo sapiens, UniProt Q9NR48).
T5 construct: ASH1LPHD-BAH (aa 2579- 2794 and 2579-2834); GST (N, cleaved yes); made in house; host or cells: E. coli BL21 or Rosetta2 (DE3) pLysS
As to the kind of experiment: Tryptophan fluorescence binding, ASH1LPHD-BAH. To be noted: 25 °C, pH 7.5, mean ± S.D., three independent experiments.
Excerpt: as §1, with “°C.” for “°C. After harvesting, the GST-tagged proteins were purified using glutathione agarose (Thermo Scientific) in 20 mM Tris pH 7.5, 150-500 mM NaCl, 5 mM MgCl2 and 2 mM DTT.”
as §3

Another assay concerns H3K4me3-NCP. The format is binding. To be noted: EMSA; 0.025 µM nucleosome, increasing protein, pH 7.5, on ice 5 min. On the technique in general: A gel shift assay detects complexes by their altered migration in electrophoresis.
Where [3] appears, read: WT, summary of tryptophan fluorescence and MST, di- and trimethylated peptides, read-out: binding affinity.

On to “ASH1LSET: isolated unlabeled ASH1LSET domain”, for which the “interaction of ASH1LSET with ASH1LPHD (CSPs)” value with ASH1LPHD [1] was “does not interact with ASH1LPHD”. Besides, the “interaction of ASH1LSET with ASH1LBD (CSPs)” value with ASH1LBD was “direct contact with ASH1LBD”.
In the case of `C[C@H](N)C(=O)N[C@@H](CCCNC(=N)N)C(=O)N[C@H](C(=O)N[C@@H](CCCC[N+](C)(C)C)C(=O)N[C@@H](CCC(N)=O)C(=O)N[C@H](C(=O)N[C@@H](C)C(=O)N[C@@H](CCCNC(=N)N)C(=O)N[C@@H](CCCCN)C(=O)N[C@@H](CO)C(=O)N[C@H](C(=O)NCC(=O)O)[C@@H](C)O)[C@@H](C)O)[C@@H](C)O` [H3K4me3], the Kd on ASH1LPHD [2] (setting [3]) is 1000 to 2000 nM; at ASH1LPHD D2584A, 5000 to 7000 nM; at ASH1LPHD D2595A, 5000 to 7000 nM; on ASH1LPHD Q2601K, 1000 ± 300 nM; at ASH1LPHD-BAH, 1000 ± 400 nM.
Turning to “ASH1LPHD: Human ASH1L PHD finger (aa 2579-2629) (HEKDDDVIRCICGLYKDEGLMIQCDKCMVWQHCDCMGVNSDVEHYLCEQCD; left off: GST, end not stated, cleaved)”, in the assay on H3K4me3-NCP, the “binding to H3K4me3-NCP” value is “incapable”.
Regarding `C[C@H](N)C(=O)N[C@@H](CCCNC(=N)N)C(=O)N[C@H](C(=O)N[C@@H](CCCCN(C)C)C(=O)N[C@@H](CCC(N)=O)C(=O)N[C@H](C(=O)N[C@@H](C)C(=O)N[C@@H](CCCNC(=N)N)C(=O)N[C@@H](CCCCN)C(=O)N[C@@H](CO)C(=O)N[C@H](C(=O)NCC(=O)O)[C@@H](C)O)[C@@H](C)O)[C@@H](C)O` [H3K4me2], the Kd at ASH1LPHD [2] (setting [3]) was 1000 to 2000 nM; at ASH1LPHD [2] (tryptophan fluorescence, H3 aa 1-12, excitation 295 nm, emission 320-360 nm, 25 °C, 0.5–2 μM protein, 20–25 mM Tris pH 7.5, 150 mM NaCl, 3 mM DTT, mean ± S.D., three independent experiments, read-out: Kd), 1000 ± 400 nM.
